Data on 21 compounds can be found in US9567341B2, “Pyrrolopyrimidine derivatives as NR2B NMDA receptor antagonists” (Rugen Holdings (Cayman) Limited, priority 2014, dated 2017).

Read-outs that look alike come from different tables or passages of the source.

For one data set, the target named is human NR1/NR2A (Homo sapiens (Human), UniProt Q05586+Q12879). In words: NR2A activity (Fluo-4 calcium influx assay). Format: cell-based.
For another data set, the target named is human NR1/NR2B (Homo sapiens (Human), UniProt Q13224). In words: NR2B antagonist activity (Fluo-4 calcium influx assay). Format: cell-based.
In the next data set the target is CYP2D6 (Homo sapiens (Human), UniProt P10635). In words: CYP P450 enzyme inhibition in pooled human liver microsome. As to conditions: read-out: CYP2D6 IC50, dextromethorphan 5 μM. Background: Microsomes from liver hold many membrane-bound enzymes, among them those of drug oxidation.
The target of a further data set is hERG channel (Homo sapiens (Human), UniProt Q12809). As to conditions: pH 7.35.
Another data set concerns Rats. Nature of the data set: Electroconvulsive threshold (ECT) test. Format: in vivo, rat. As to conditions: p.o. 60 minutes before ECS, theophylline 128 mg/kg, diazepam 16 mg/kg.
A further data set has as its system Male mice (strain NLMN). In words: Forced swim test. Format: in vivo, mouse. As to conditions: intraperitoneal, imipramine 32 mg/kg IP.
Where [1] appears, read: HEK293 cells stably expressing human NR1/NR2B, glutamate 100 μM, glycine 50 μM, read-out: NR2B IC50.
Setting [2] is: as printed in the CYP2D6 table, read-out: NR2B IC50.
Where [3] appears, read: HEK293 cells stably expressing human NR1/NR2A, glutamate 100 μM, glycine 50 μM, read-out: NR2A IC50.

Chain of hERG channel (Q12809 whole entry): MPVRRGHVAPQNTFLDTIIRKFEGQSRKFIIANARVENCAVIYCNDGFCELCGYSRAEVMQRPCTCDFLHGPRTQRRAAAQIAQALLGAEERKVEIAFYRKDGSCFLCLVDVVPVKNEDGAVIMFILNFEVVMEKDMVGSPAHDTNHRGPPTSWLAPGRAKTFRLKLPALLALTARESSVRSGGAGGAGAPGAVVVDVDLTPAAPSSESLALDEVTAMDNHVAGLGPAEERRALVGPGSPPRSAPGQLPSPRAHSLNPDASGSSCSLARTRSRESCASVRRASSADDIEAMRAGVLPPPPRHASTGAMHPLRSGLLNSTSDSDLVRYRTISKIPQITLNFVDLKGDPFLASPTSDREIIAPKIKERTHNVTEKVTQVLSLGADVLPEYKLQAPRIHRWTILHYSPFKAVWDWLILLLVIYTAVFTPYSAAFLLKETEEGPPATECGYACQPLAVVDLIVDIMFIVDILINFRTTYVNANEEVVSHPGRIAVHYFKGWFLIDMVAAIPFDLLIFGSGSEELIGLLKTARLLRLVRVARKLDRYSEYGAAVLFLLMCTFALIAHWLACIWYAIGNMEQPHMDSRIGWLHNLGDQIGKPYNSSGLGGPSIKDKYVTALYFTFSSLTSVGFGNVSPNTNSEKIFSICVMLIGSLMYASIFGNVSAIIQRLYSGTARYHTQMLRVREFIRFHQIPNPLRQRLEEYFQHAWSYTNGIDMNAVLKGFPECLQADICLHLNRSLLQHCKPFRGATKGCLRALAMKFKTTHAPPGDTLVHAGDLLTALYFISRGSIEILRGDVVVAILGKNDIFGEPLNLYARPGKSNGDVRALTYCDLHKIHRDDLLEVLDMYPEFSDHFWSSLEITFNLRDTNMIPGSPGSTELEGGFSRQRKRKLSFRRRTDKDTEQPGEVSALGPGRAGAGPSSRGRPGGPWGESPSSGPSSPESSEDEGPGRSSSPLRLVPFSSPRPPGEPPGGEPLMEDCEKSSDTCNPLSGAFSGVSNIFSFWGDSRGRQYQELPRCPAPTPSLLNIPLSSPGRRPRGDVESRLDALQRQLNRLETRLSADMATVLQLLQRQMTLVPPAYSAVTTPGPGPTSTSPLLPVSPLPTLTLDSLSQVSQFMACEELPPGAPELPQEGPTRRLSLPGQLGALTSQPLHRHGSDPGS
Chain of human NR1/NR2B (Q13224 27-1484, other chains not shown): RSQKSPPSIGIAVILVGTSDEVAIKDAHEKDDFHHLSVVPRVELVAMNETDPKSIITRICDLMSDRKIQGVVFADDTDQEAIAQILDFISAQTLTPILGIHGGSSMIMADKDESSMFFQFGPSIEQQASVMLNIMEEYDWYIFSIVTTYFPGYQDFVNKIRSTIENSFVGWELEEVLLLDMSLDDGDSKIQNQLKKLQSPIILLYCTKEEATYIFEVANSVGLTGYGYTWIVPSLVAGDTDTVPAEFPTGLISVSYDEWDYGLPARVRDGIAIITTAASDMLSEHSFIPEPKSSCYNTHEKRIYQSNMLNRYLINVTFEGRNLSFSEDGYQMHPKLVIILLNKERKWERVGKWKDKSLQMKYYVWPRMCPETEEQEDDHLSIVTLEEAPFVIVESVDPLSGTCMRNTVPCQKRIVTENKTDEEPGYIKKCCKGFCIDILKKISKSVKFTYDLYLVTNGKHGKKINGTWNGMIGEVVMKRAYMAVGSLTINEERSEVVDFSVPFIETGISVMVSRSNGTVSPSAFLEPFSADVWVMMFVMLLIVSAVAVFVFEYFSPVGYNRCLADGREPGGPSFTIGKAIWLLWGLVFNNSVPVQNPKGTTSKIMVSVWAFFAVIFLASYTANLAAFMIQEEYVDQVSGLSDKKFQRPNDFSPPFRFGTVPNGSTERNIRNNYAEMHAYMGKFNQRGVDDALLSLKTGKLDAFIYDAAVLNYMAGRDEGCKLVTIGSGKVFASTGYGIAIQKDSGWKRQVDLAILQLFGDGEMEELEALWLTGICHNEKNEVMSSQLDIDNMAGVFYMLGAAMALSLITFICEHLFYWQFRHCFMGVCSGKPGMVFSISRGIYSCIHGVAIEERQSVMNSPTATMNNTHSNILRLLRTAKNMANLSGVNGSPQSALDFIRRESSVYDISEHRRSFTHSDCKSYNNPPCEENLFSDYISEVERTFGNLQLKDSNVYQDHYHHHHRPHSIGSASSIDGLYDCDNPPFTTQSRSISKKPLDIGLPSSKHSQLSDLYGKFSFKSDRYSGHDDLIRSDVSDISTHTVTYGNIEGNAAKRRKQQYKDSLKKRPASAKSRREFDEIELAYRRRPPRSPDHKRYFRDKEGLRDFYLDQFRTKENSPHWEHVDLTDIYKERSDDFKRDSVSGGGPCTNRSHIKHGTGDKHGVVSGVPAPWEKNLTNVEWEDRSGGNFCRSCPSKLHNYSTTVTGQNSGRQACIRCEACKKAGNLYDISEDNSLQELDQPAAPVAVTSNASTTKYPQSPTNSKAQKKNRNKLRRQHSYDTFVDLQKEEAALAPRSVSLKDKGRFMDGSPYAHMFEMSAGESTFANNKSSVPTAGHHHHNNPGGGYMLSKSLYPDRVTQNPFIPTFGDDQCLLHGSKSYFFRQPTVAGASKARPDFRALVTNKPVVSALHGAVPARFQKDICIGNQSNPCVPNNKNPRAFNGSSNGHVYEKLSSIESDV
Chain of CYP2D6 (P10635 whole entry): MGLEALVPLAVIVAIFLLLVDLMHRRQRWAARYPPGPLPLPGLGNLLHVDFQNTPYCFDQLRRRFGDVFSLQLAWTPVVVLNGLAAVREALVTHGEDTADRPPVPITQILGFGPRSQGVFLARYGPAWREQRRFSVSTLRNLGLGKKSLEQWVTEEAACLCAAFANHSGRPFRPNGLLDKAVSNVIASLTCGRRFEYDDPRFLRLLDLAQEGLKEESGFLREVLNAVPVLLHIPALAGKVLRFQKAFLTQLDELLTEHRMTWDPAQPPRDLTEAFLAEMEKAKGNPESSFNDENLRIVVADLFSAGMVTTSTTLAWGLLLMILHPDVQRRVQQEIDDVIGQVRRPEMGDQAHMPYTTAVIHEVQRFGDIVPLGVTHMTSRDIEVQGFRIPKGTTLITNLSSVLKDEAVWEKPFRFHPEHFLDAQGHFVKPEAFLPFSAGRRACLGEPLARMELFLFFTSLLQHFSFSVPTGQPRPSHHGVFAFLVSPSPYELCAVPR
Chain of human NR1/NR2A (Q12879 23-1464, other chains not shown): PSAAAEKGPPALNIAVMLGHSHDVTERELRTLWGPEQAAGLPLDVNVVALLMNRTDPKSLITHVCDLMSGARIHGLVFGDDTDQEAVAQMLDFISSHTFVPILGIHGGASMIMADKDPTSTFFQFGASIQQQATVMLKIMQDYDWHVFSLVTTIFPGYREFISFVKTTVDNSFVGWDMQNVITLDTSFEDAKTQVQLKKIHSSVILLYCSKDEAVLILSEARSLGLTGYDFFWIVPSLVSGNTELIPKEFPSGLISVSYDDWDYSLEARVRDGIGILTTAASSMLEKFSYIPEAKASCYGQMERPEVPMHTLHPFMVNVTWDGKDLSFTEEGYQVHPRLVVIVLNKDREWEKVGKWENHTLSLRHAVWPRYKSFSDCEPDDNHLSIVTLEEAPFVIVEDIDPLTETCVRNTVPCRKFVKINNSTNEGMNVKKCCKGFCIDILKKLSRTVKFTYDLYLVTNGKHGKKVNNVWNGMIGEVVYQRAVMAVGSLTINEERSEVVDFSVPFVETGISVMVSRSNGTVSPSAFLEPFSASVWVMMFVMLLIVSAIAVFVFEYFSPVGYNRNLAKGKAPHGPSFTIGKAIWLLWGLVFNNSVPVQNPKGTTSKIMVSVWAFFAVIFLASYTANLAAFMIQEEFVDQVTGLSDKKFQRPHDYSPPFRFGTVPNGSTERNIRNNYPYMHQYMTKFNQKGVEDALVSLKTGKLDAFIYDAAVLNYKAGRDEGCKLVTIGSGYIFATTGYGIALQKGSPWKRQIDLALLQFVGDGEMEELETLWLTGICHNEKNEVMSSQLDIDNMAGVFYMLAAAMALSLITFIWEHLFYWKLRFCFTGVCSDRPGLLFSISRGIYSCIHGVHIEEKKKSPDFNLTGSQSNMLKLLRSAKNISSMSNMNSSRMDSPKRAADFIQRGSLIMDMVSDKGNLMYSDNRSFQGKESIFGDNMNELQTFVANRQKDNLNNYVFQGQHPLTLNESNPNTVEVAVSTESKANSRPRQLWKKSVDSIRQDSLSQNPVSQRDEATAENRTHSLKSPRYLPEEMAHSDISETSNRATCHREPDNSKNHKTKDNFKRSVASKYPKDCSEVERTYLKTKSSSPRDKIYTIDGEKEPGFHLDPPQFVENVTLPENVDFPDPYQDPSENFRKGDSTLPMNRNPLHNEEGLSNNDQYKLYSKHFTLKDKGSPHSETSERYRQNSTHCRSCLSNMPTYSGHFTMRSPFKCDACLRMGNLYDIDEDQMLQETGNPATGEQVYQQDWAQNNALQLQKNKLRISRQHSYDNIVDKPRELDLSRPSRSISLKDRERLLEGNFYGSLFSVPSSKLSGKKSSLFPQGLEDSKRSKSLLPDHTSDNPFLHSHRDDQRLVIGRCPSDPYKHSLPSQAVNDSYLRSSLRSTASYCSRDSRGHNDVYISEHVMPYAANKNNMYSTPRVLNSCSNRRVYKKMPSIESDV

As to `Fc1ccc(C(F)(F)CN2CCC(Nc3ncnc4[nH]ccc34)CC2)nc1` [Compound C-2, N-(1-(2,2-difluoro-2-(5-fluoropyridin-2-yl)ethyl)piperidin-4-yl)-7H-pyrrolo[2,3-d]-pyrimidin-4-amine], the results for the IC50 at human NR1/NR2A and at human NR1/NR2B (read-out: NR2B IC50) were > 10000 nM and 124 nM, respectively.

With `FC(F)(CN1CCC(Nc2ncnc3[nH]ccc23)CC1)c1ccc(Cl)cn1` [Compound C-3, N-(1-(2-(5-chloropyridin-2-yl)-2,2-difluoroethyl)piperidin-4-yl)-7H-pyrrolo-[2,3-d]pyrimidin-4-amine], the IC50 (usually the concentration needed to halve the response being measured) was 12000 nM on CYP2D6, 7000 nM at hERG channel and > 10000 nM on human NR1/NR2A.

With `Cc1ccc(C(F)(F)CN2CCC(Nc3ncnc4[nH]ccc34)CC2)nc1` [Compound C-4, N-(1-(2,2-difluoro-2-(5-methylpyridin-2-yl)ethyl)piperidin-4-yl)-7H-pyrrolo[2,3-d]pyrimidin-4-amine], the concentration for half-maximal inhibition (IC50) at hERG channel is 11400 nM; at human NR1/NR2A, > 10000 nM; at human NR1/NR2B (read-out: NR2B IC50) it was 35 nM; at human NR1/NR2B (read-out: hNR2B IC50), 35 nM.

With `FC(F)(F)c1ccc(C(F)(F)CN2CCC(Nc3ncnc4[nH]ccc34)CC2)nc1` [Compound C-5, N-(1-(2,2-difluoro-2-(5-(trifluoromethyl)pyridin-2-yl)ethyl)piperidin-4-yl)-7H-pyrrolo[2,3-d]pyrimidin-4-amine], the IC50 at CYP2D6 stood at 33000 nM; at hERG channel, 9500 nM; on human NR1/NR2B (setting [1]), 30 nM; at human NR1/NR2B (setting [2]), 30 nM; on human NR1/NR2B (as printed in the hERG table, read-out: hNR2B IC50) it was 30 nM.

As to `FC(F)c1ccc(C(F)(F)CN2CCC(Nc3ncnc4[nH]ccc34)CC2)nc1` [Compound C-6, N-(1-(2-(5-(difluoromethyl)pyridin-2-yl)-2,2-difluoroethyl)piperidin-4-yl)-7H-pyrrolo[2,3-d]pyrimidin-4-amine], the IC50 on human NR1/NR2B (setting [1]) turned out to be 31 nM.

With `FCc1ccc(C(F)(F)CN2CCC(Nc3ncnc4[nH]ccc34)CC2)nc1` [Compound C-7, N-(1-(2,2-difluoro-2-(5-(fluoromethyl)pyridin-2-yl)ethyl)piperidin-4-yl)-7H-pyrrolo[2,3-d]pyrimidin-4-amine], the IC50 was > 10000 nM on human NR1/NR2A and 14 nM on human NR1/NR2B (read-out: NR2B IC50).

With `FC(F)(F)Oc1ccc(C(F)(F)CN2CCC(Nc3ncnc4[nH]ccc34)CC2)nc1` [Compound C-11, N-(1-(2,2-difluoro-2-(5-(trifluoromethoxy)pyridin-2-yl)ethyl)piperidin-4-yl)-7H-pyrrolo[2,3-d]pyrimidin-4-amine], the IC50 at human NR1/NR2B (setting [1]) came out at 43 nM.

As to `Fc1cc(Cl)cnc1C(F)(F)CN1CCC(Nc2ncnc3[nH]ccc23)CC1` [Compound C-16, N-(1-(2-(5-chloro-3-fluoropyridin-2-yl)-2,2-difluoroethyl)piperidin-4-yl)-7H-pyrrolo[2,3-d]pyrimidin-4-amine], the IC50 at human NR1/NR2A is > 10000 nM; on human NR1/NR2B (read-out: NR2B IC50), 47 nM.

Consider `Cc1cnc(C(F)(F)CN2CCC(Nc3ncnc4[nH]ccc34)CC2)c(F)c1` [Compound C-17, N-(1-(2,2-difluoro-2-(3-fluoro-5-methylpyridin-2-yl)ethyl)piperidin-4-yl)-7H-pyrrolo[2,3-d]pyrimidin-4-amine], for which the IC50 on human NR1/NR2A was > 10000 nM; on human NR1/NR2B (read-out: NR2B IC50), 44 nM.

Turning to `Fc1cc(C(F)(F)F)cnc1C(F)(F)CN1CCC(Nc2ncnc3[nH]ccc23)CC1` [Compound C-18, N-(1-(2,2-difluoro-2-(3-fluoro-5-(trifluoromethyl)pyridin-2-yl)-ethyl)piperidin-4-yl)-7H-pyrrolo[2,3-d]pyrimidin-4-amine], the IC50 on human NR1/NR2B (setting [1]) was found to be 84 nM.

Regarding `Cc1ccc(C(F)(F)CN2CCC(N(C)c3ncnc4[nH]ccc34)CC2)nc1` [Compound C-47, N-(1-(2,2-difluoro-2-(5-methylpyridin-2-yl)ethyl)piperidin-4-yl)-N-methyl-7H-pyrrolo[2,3-d]pyrimidin-4-amine], the IC50 is > 10000 nM on human NR1/NR2A and 140 nM at human NR1/NR2B (read-out: NR2B IC50).

For the compound `Cc1ccc(C(F)(F)CN2CCC(Nc3ncnc4[nH]ccc34)CC2)cn1` [Compound C-128, N-(1-(2,2-difluoro-2-(6-methylpyridin-3-yl)ethyl)piperidin-4-yl)-7H-pyrrolo-[2,3-d]pyrimidin-4-amine], the IC50 at hERG channel is 28000 nM; on human NR1/NR2A, > 10000 nM; at human NR1/NR2B (read-out: NR2B IC50) it was 89 nM; at human NR1/NR2B (read-out: hNR2B IC50), 89 nM.

On to `Fc1ccc(C(F)(F)CN2CCC(Nc3ncnc4[nH]ccc34)CC2)cc1` [Compound C-175, N-(1-(2,2-difluoro-2-(4-fluorophenyl)ethyl)piperidin-4-yl)-7H-pyrrolo[2,3-d]-pyrimidin-4-amine], for which the concentration for half-maximal inhibition (IC50) is 2300 nM on CYP2D6; 4500 nM against hERG channel; > 10000 nM on human NR1/NR2A; 22 nM at human NR1/NR2B (read-out: NR2B IC50); 22 nM on human NR1/NR2B (read-out: hNR2B IC50).

On to `FC(F)(CN1CCC(Nc2ncnc3[nH]ccc23)CC1)c1ccc(Cl)cc1` [Compound C-176, N-(1-(2-(4-chlorophenyl)-2,2-difluoroethyl)piperidin-4-yl)-7H-pyrrolo[2,3-d]pyrimidin-4-amine], for which the figures for the IC50 on human NR1/NR2A and on human NR1/NR2B (read-out: NR2B IC50) were > 10000 nM and 26 nM, respectively.

Regarding `Cc1ccc(C(F)(F)CN2CCC(Nc3ncnc4[nH]ccc34)CC2)cc1` [Compound C-177, N-(1-(2,2-difluoro-2-p-tolylethyl)piperidin-4-yl)-7H-pyrrolo[2,3-d]-pyrimidin-4-amine], the figures for the IC50 on human NR1/NR2A and at human NR1/NR2B (read-out: NR2B IC50) were > 10000 nM and 27 nM, respectively.

For `FC(F)(F)c1ccc(C(F)(F)CN2CCC(Nc3ncnc4[nH]ccc34)CC2)cc1` [Compound C-178, N-(1-(2,2-difluoro-2-(4-(trifluoromethyl)phenyl)ethyl)piperidin-4-yl)-7H-pyrrolo-[2,3-d]pyrimidin-4-amine], the IC50 is 6700 nM at CYP2D6, > 10000 nM on human NR1/NR2A (setting [3]), 64 nM at human NR1/NR2B (setting [1]) and 64 nM at human NR1/NR2B (setting [2]).

`FC(F)c1ccc(C(F)(F)CN2CCC(Nc3ncnc4[nH]ccc34)CC2)cc1` [Compound C-179, N-(1-(2-(4-(difluoromethyl)phenyl)-2,2-difluoroethyl)piperidin-4-yl)-7H-pyrrolo[2,3-d]pyrimidin-4-amine]: the IC50 was 4900 nM at CYP2D6 and > 10000 nM at human NR1/NR2A (setting [3]).

`Cc1cnc(C(F)(F)CN2CCC(Nc3ncnc4[nH]ccc34)CC2)cn1` [Compound C-230, N-(1-(2,2-difluoro-2-(5-methylpyrazin-2-yl)ethyl)piperidin-4-yl)-7H-pyrrolo[2,3-d]pyrimidin-4-amine]: the IC50 against hERG channel was 13800 nM; on human NR1/NR2A it was > 10000 nM; at human NR1/NR2B (read-out: NR2B IC50), 88 nM; at human NR1/NR2B (read-out: hNR2B IC50), 88 nM.

For the compound `CN1C(=O)CN=C(c2ccccc2)c2cc(Cl)ccc21` [diazepam], the “pro-/anticonvulsant activity (electroconvulsive threshold)” value in the data set with Rats is “expected pro- and anticonvulsant activities”.

With `CN(C)CCCN1c2ccccc2CCc2ccccc21` [imipramine], in the data set with Male mice (strain NLMN), the “antidepressant activity (immobility time)” value is given as “expected antidepressant activity”.

As to `Cn1c(=O)c2[nH]cnc2n(C)c1=O` [theophylline], the “pro-/anticonvulsant activity (electroconvulsive threshold)” value in the data set on Rats was “expected pro- and anticonvulsant activities”.
